According to PMC2990764, “Evolution of Allosteric Citrate Binding Sites on 6-phosphofructo-1-kinase” (PLoS ONE, 2010):
Residue numbers refer to the chain shown, from its start. pKi: −log10 of the molar value.

Legend:
Assay in all cases: coupled spectrophotometric PFK1 assay ([…] nm) with purified enzyme
Assay type in all cases: biochemical
[1] = target: T1, human muscle type 6-phosphofructo-1-kinase (PFK-M) (Homo sapiens, UniProt P08237)
T1 construct: gene PFKM; recombinant native human PFK-M expressed in E. coli RL257
T1 sequence (P08237 2-780): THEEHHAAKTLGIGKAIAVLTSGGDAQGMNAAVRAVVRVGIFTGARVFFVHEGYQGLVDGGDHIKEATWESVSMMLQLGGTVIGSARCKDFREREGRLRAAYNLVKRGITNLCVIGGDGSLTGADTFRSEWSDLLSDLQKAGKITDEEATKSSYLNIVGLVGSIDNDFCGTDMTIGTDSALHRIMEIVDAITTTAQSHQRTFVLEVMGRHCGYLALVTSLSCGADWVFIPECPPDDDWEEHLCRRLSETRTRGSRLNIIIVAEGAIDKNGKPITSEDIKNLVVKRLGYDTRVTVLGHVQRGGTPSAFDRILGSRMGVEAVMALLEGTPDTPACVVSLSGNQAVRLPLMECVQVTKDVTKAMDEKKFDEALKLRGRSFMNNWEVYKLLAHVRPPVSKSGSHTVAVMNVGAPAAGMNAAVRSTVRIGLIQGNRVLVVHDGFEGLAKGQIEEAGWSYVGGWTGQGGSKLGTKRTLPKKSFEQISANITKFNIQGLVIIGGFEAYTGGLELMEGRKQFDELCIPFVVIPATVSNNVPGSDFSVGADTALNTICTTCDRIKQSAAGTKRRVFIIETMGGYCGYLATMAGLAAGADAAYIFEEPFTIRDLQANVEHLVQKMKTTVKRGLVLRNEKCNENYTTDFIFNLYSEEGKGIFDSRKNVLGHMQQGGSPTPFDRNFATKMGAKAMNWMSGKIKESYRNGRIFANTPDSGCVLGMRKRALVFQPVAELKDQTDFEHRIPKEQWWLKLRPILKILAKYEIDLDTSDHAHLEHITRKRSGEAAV

[2] = target: T2, human muscle type 6-phosphofructo-1-kinase (PFK-M) (Homo sapiens, UniProt P08237, K617A)
T2 construct: gene PFKM; recombinant human PFK-M mutant expressed in E. coli RL257
T2 sequence (P08237 2-780 K617A): T1 sequence (P08237 2-780) with K616A

[3] = target: T3, human muscle type 6-phosphofructo-1-kinase (PFK-M) (Homo sapiens, UniProt P08237, K557R)
T3 construct: gene PFKM; recombinant human PFK-M mutant expressed in E. coli RL257
T3 sequence (P08237 2-780 K557R): T1 sequence (P08237 2-780) with K556R

O=C(O)CC(O)(CC(=O)O)C(=O)O [citrate]
pKi [1]: 4.30 | pKi [2]: 3.30 | pKi [3]: 3.52
